Assay results taken from PubChem BioAssay AID2060618 (Molecular Pharmacology Branch, DTP, NCI, 2025).
“And” between values parts separate entries of the source, which are not always exact repeats. Identical values can stand only once. Each block holds one molecule with its values, some of them ahead of it.

System: 454973-116-R2-J3-PDC spheroids, percent test/control viability
Assay: Anticancer human tumor 454973-116-R2-J3-PDC patient-derived pancreatic carcinoma cell line growth inhibition [CLK]
Conditions: spheroids with HUVEC and MSC; for viability, T/C: stronger effect = lower value
Text: A high-throughput screen of multi-cell type tumor spheroids was designed to identify active combinations of […] and targeted small molecules. Complex spheroids include a stromal component modeled by human endothelial cells (HUVEC) and fibroblasts modeled by human mesenchymal stem cells (MSCs). The concentration ranges selected for each drug and investigational agent were based upon clinically achievable concentrations if the clinical Cmax of the agent was known.
Compounds. The drugs and investigational agents: cirtuvivint (SM08502; NSC835563), CC-671 (NSC850746), vemurafenib (NSC761431), tapotoclax (NSC804041), sotorasib (NSC818433), adagrasib (NSC831453), MRTX-1133 (NSC836407), BAY2416964 (NSC825713), copanlisib (NSC816437), inavolisib (NSC800729), abemaciclib (NSC768073), osimertinib (NSC779217), entinostat (NSC756642), eltanexor (KPT-8602, NSC794443), venetoclax (NSC766270), ceralasertib (NSC777638), bortezomib (NSC756655), olaparib (NSC753686), talazoparib (NSC767125), alisertib (NSC759677), peposertib (NSC802822), gemcitabine (NSC613327), 5-fluorouracil (NSC19893), SN-38 (NSC673596), oxaliplatin (NSC266046), paclitaxel (NSC125973), and doxorubicin (NSC123127), were obtained from the National Cancer Institute (NCI) Developmental Therapeutics Program Chemical Repository. The FDA-approved anticancer drug set is available from the Developmental Therapeutics Program at https://dtp.cancer.gov/organization/dscb/obtaining/available plates.htm. […] The stock solutions were prepared in dimethyl sulfoxide (DMSO, Sigma-Aldrich, St. Louis, MO, cat. D2650), except for the platinum complexes which were prepared in saline (Quality Biological, Gaithersburg, MD, cat. 114-055-101), at 800-fold the tested concentration and stored at -70 degrees C prior to their use. All drugs and investigational agents were tested over a range starting from a high concentration at or near the clinical Cmax and decreasing in half-log increments. If the clinical Cmax for an agent had not been determined, the highest concentration tested was 10 microM.
Cell Culture. All cells were maintained in an incubator at 37 degrees C and 5% CO2 with 95% humidity. The PDC lines were cultured according to standard operating procedures established by the NCI PDMR. Briefly, all PDCs were thawed and cultured in Matrigel-coated flasks prepared with a working solution of 1X Ham's F-12 nutrient mix, without supplementation (Invitrogen, Waltham, MA, cat. 11765054), 100 U/mL penicillin-streptomycin (Invitrogen, cat. 15140122), and 2.5% Matrigel (Corning Inc., Corning, NY, cat. 354248) for the first three passages. The 947758-054-R-J2-PDC line was cultured in 6B/Colon 1A media, which includes advanced DMEM/F-12 (Thermo Fisher Scientific, cat. 12634028), 10 mM HEPES (Thermo Fisher Scientific, cat. 15630080), 1X GlutaMAX supplement (Thermo Fisher Scientific, cat. 35050061), 0.1 mg/mL primocin (InvivoGen, cat. ant-pm-2), 10% defined fetal bovine serum, heat inactivated (HyClone Laboratories Inc., cat. SH30070.03HI), 1.25 mM N-Acetyl-L-cysteine (Sigma-Aldrich, cat. A9165), 10 mM nicotinamide (Sigma-Aldrich, cat. N0636), 1X B-27 supplement (Thermo Fisher Scientific, cat. 17504044), 1X N-2 supplement (Thermo Fisher Scientific, cat. 17502048), and 10 microM Y-27632 dihydrochloride (Tocris Bioscience, cat. 1254). The 876862-298-R-J1-PDC was cultured in 6E media, which includes all 6B/Colon 1A media components plus 50% L-WRN conditioned media (ATCC, cat. CRL-3276), 50 ng/mL recombinant human EGF recombinant protein (hEGF; Thermo Fisher Scientific, cat. PHG0311), 10 ng/mL recombinant human fibroblast growth factor 10 (hGFG-10; PeproTech, cat. 100-26), 1 ng/mL recombinant human fibroblast growth factor 2 (hFGF-2; PeproTech, cat. 100-18B), and 1 µM prostaglandin E2 (PGE2; Tocris, cat. 2296). The 227483-062-R1-J1-PDC line was cultured in Panc media, containing all 6E components except hFGF-2, with the addition of 500 nM SB-431542 (Selleckchem, cat. S1067) and 10 nM gastrin (Tocris, cat. 3006). […]
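Also: spheroids exposed to compounds for 7 days before readout.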

Compound: CCN1CCN(Cc2ccc(Nc3ncc(F)c(-c4cc(F)c5nc(C)n(C(C)C)c5c4)n3)nc2)CC1
- viability, T/C (compound 0.00316 µM): 95.9% and 106%
- viability, T/C (compound 0.01 µM): 99.1% and 87.2%
- viability, T/C (compound 0.0316 µM): 89.6% and 75.1%
- viability, T/C (compound 0.1 µM): 75.3% and 70.8%
- viability, T/C (compound 0.316 µM): 60.3% and 65%
- viability, T/C (compound 1 µM): 62.7% and 64.3%
- IC50 (curve of compound): > 1000 nM

Compound: CCc1c2c(nc3ccc(O)cc13)-c1cc3c(c(=O)n1C2)COC(=O)[C@]3(O)CC
- viability, T/C (compound 0.00316 µM): 39.9% and 31.5%
- viability, T/C (compound 0.01 µM): 15.9% and 14.3%
- viability, T/C (compound 0.0316 µM): 12% and 13%
- viability, T/C (compound 0.1 µM): 6.22% and 7.38%
- viability, T/C (compound 0.316 µM): 2.81% and 3.92%
- viability, T/C (compound 1 µM): 1.02% and 3.21%
- IC50 (curve of compound): < 3.16 nM

Compound: CN1CCN(c2cc(C(=O)Nc3cc4cc(-c5cnn(C)c5)ccc4cn3)ccn2)CC1
- viability, T/C (compound 0.0316 µM): 102% [middle of 12 runs]
- viability, T/C (compound 0.1 µM): 81.8% [middle of 12 runs]
- viability, T/C (compound 0.316 µM): 2.31% [middle of 11 runs]
- viability, T/C (compound 1 µM): 0.41% [middle of 10 runs]
- viability, T/C (compound 3.16 µM): 0.23% [middle of 9 runs]
- viability, T/C (compound 10 µM): 0.25% [middle of 10 runs]
- IC50 (compound alone, run of 09/18/2023): 159 nM [middle of 9 runs]

Compound: CNC(=O)c1ccc(Nc2nc(OC3CCCC3)c3c(-c4ccc5nc(C)oc5c4)c[nH]c3n2)c(OC)c1
- viability, T/C (compound 0.0316 µM): 106% [middle of 12 runs]
- viability, T/C (compound 0.1 µM): 104% [middle of 12 runs]
- viability, T/C (compound 0.316 µM): 47.8% [middle of 12 runs]
- viability, T/C (compound 1 µM): 30.7% [middle of 12 runs]
- viability, T/C (compound 3.16 µM): 26.1% [middle of 12 runs]
- viability, T/C (compound 10 µM): 28.5% [middle of 11 runs]
- IC50 (compound alone, run of 09/19/2023): 302 nM [middle of 12 runs]

Compound: COc1c(OCCCN2CCOCC2)ccc2c3n(c(=NC(=O)c4cnc(N)nc4)nc12)CCN3
- viability, T/C (compound 0.00316 µM): 97.1% and 109%
- viability, T/C (compound 0.01 µM): 98.4% and 90.9%
- viability, T/C (compound 0.0316 µM): 99.2% and 75.2%
- viability, T/C (compound 0.1 µM): 44% and 39%
- viability, T/C (compound 0.316 µM): 23.6% and 20.3%
- viability, T/C (compound 1 µM): 8.06% and 7.21%
- IC50 (curve of compound): 88.4 nM and 72.4 nM

Continued, in another order:

- IC50 (curve of compound): 5920 nM and 5070 nM
Compound: COC1C=CCC(C)C(C)S(=O)(=O)NC(=O)c2ccc3c(c2)N(CC2CCC21)CC1(CCCc2cc(Cl)ccc21)CO3 (stereo not given)
- viability, T/C (compound 0.0316 µM): 109% and 95.4%
- viability, T/C (compound 0.1 µM): 103% and 97.3%
- viability, T/C (compound 0.316 µM): 95.6% and 90.4%
- viability, T/C (compound 1 µM): 94.7%
- viability, T/C (compound 3.16 µM): 99.9% and 80.9%
- viability, T/C (compound 10 µM): 8.41% and 5.61%

- IC50 (curve of compound): > 100 nM
Compound: Cn1ncnc1[C@H]1c2n[nH]c(=O)c3cc(F)cc(c23)N[C@@H]1c1ccc(F)cc1
- viability, T/C (compound 0.000316 µM): 100% and 113%
- viability, T/C (compound 0.001 µM): 96.3% and 104%
- viability, T/C (compound 0.00316 µM): 105% and 102%
- viability, T/C (compound 0.01 µM): 93.3% and 96.9%
- viability, T/C (compound 0.0316 µM): 93.7% and 87.6%
- viability, T/C (compound 0.1 µM): 91.9% and 89.7%

- IC50 (curve of compound): 614 nM and 362 nM
Compound: NC(=O)C(=Cn1cnc(-c2cc(C(F)(F)F)cc(C(F)(F)F)c2)n1)c1cncnc1
- viability, T/C (compound 0.00949 µM): 97.3% and 100%
- viability, T/C (compound 0.03 µM): 97% and 95.2%
- viability, T/C (compound 0.0949 µM): 83.1% and 78.2%
- viability, T/C (compound 0.3 µM): 63.3% and 48.4%
- viability, T/C (compound 0.949 µM): 42.4% and 35.4%
- viability, T/C (compound 3 µM): 21.7% and 10.8%

- IC50 (curve of compound): 1800 nM and 1680 nM
Compound: Nc1ccccc1NC(=O)c1ccc(CNC(=O)OCc2cccnc2)cc1
- viability, T/C (compound 0.0316 µM): 103% and 100%
- viability, T/C (compound 0.1 µM): 96.6% and 102%
- viability, T/C (compound 0.316 µM): 90.7% and 89.4%
- viability, T/C (compound 1 µM): 71.8% and 70.5%
- viability, T/C (compound 3.16 µM): 29.7% and 26.2%
- viability, T/C (compound 10 µM): 9.11% and 5.25%

- IC50 (curve of compound): > 10000 nM
Compound: O=C(c1cc(Cc2n[nH]c(=O)c3ccccc23)ccc1F)N1CCN(C(=O)C2CC2)CC1
- viability, T/C (compound 0.0316 µM): 115% and 104%
- viability, T/C (compound 0.1 µM): 95.9% and 101%
- viability, T/C (compound 0.316 µM): 99.6% and 101%
- viability, T/C (compound 1 µM): 101% and 99.2%
- viability, T/C (compound 3.16 µM): 94.5% and 98.7%
- viability, T/C (compound 10 µM): 71.1% and 77.5%
